The test system of test [1] is CAL-51. Description: normalised viability (% of control), CellTiter-Blue; higher = more viable cells (about 100 = DMSO control). Conditions: 10 nM; incubation time: 72 h. The procedure: (§1)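 DSRT, CellTiter-Blue viability, 72 h incubation. Signal is normalised to DMSO and benzethonium chloride controls. Value is the normalised response at dose 3.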
In general terms: The colour change of resazurin is a common sign of viable cells or microbes.

In test [2] the test system is CAL-120. Described as above. Conditions: 100 nM; incubation time: 72 h. How it is done:
as §1

For the next test, the system named is MDA-MB-231. The test is described as above. To be noted: 100 nM; incubation time: 72 h. How it is done:
as §1

Test [3] has as its system BT-549. The test is described as above. To be noted: 100 nM; incubation time: 72 h. How it is done: as §1
The subject of test [4] is Hs578T. Described as above. To be noted: 100 nM; incubation time: 72 h. How it is done: as §1
For test [5], the system named is BT-474. Described as above. Conditions: 100 nM; incubation time: 72 h. How it is done: as §1
For the next test, the system named is MFM-223. The description is as above. Conditions: 100 nM; incubation time: 72 h. The procedure:
as §1

In test [6] the test system is DU-4475. Described as above. To be noted: 10 nM; incubation time: 72 h. How it is done: as §1
For another test, the system named is MDA-MB-436. The description is as above. Conditions: 100 nM; incubation time: 72 h. The procedure: as §1
Test [7] concerns MDA-MB-453. The test is described as above. To be noted: 10 nM; incubation time: 72 h. The procedure:
as §1

Test [8] deals with HDQ-P1. The description is as above. Conditions: 10 nM; incubation time: 72 h. How it is done:
as §1

The subject of the next test is SK-BR-3. The description is as above. To be noted: 100 nM; incubation time: 72 h. How it is done: as §1
The next test relates to HCC1937. The test is described as above. Conditions: 100 nM; incubation time: 72 h. How it is done:
as §1

A further test has as its system HCC1143. Described as above. Conditions: 100 nM; incubation time: 72 h. The procedure:
as §1

The test system of test [9] is CAL-148. The description is as above. Conditions: 10 nM; incubation time: 72 h. How it is done:
as §1

The subject of test [10] is CAL-85-1. The test is described as above. Conditions: 10 nM; incubation time: 72 h. The procedure: as §1
The subject of another test is HCC1599. The description is as above. Conditions: 100 nM; incubation time: 72 h. How it is done: as §1
The test system of another test is MDA-MB-468. The description is as above. Conditions: 100 nM; incubation time: 72 h. How it is done:
as §1

The subject of test [11] is CAL-51. The description is as above. To be noted: incubation time: 72 h. How it is done:
(§2)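 DSRT, CellTiter-Blue viability, 72 h incubation. Signal is normalised to DMSO and benzethonium chloride controls. Value is the normalised response at dose 7.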

Test [12] has as its system DU-4475. Described as above. Conditions: incubation time: 72 h. How it is done:
as §2

In test [13] the test system is MDA-MB-453. The test is described as above. To be noted: incubation time: 72 h. The procedure:
as §2

For test [14], the system named is HDQ-P1. The test is described as above. Conditions: incubation time: 72 h. How it is done: as §2
Test [15] relates to CAL-148. The test is described as above. Conditions: incubation time: 72 h. The procedure: as §2
The subject of test [16] is CAL-85-1. Described as above. Conditions: incubation time: 72 h. How it is done: as §2
In test [17] the test system is CAL-51. Description: normalised response (% of control), CellTox Green; higher = less cell death (100 = DMSO, 0 = benzethonium chloride kill control). Conditions: incubation time: 72 h. An outline of the steps: (§3)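 Breast cancer cell lines were exposed for 72 h in 384-well plates to compound at 5 concentrations, 10-fold apart, covering a 10,000-fold range fixed for each compound. Plates were read for CellTox Green fluorescence and CellTiter-Glo luminescence and normalised to 0.1 % DMSO (100) and a positive kill control (0). Each value is the normalised signal at one concentration of the series.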

For test [18], the system named is CAL-120. Described as above. To be noted: incubation time: 72 h. The method in brief:
as §3

The test system of test [19] is BT-549. The test is described as above. Conditions: incubation time: 72 h. An outline of the steps: as §3
The test system of test [20] is Hs578T. The test is described as above. To be noted: incubation time: 72 h. The method in brief:
as §3

In test [21] the test system is BT-474. The description is as above. To be noted: incubation time: 72 h. An outline of the steps: as §3
Test [22] has as its system MDA-MB-453. Described as above. To be noted: incubation time: 72 h. An outline of the steps:
as §3

Test [23] relates to HDQ-P1. The test is described as above. To be noted: incubation time: 72 h. An outline of the steps: as §3

This note sets out measurements from the supplement of paper PMC4862054.

As to `CC(C)Cn1cnc2c(N)nc3ccccc3c21` [Imiquimod], the normalised viability in the test on CAL-51 [1] turned out to be 102%; in the test with CAL-120 [2], 98.5%; with MDA-MB-231 it was 87.4%; in the test with BT-549 [3] it was 96.1%; in the test on Hs578T [4], 98.1%; in the test on BT-474 [5], 101%. Besides, the normalised viability amounted to 91.2% in the test on MFM-223; 93.5% in the test with DU-4475 [6]; 85.6% in the test with MDA-MB-436; 112% in the test with MDA-MB-453 [7]; 99.5% with HDQ-P1 [8]; 112% with SK-BR-3. Also, the normalised viability in the test on HCC1937 worked out at 87.1%; in the test with HCC1143 it was 120%; in the test on CAL-148 [9], 105%; in the test on CAL-85-1 [10] it was 95.2%; in the test with HCC1599, 103%; with MDA-MB-468 it was 106%.
Consider `N.N.[Cl][Pt][Cl]` [Cisplatin], for which the normalised viability was determined as 108% in the test with CAL-51 [1]; 86.5% with CAL-120 [2]; 96.4% with MDA-MB-231; 105% in the test with BT-549 [3]; 106% in the test on Hs578T [4]; 127% in the test with BT-474 [5]. The normalised viability with MFM-223 is 93.7%; in the test on DU-4475 [6], 103%; in the test on MDA-MB-436, 89.8%; in the test on MDA-MB-453 [7] it was 111%; in the test on HDQ-P1 [8] it was 130%; in the test with SK-BR-3, 90.5%. Further, the normalised viability came to 95.1% in the test on HCC1937; 103% with HCC1143; 94.8% in the test with CAL-148 [9]; 104% in the test on CAL-85-1 [10]; 95.4% in the test with HCC1599; 99.1% in the test on MDA-MB-468.
For the molecule `C[C@@H](Oc1cc(-c2cnn(C3CCNCC3)c2)cnc1N)c1c(Cl)ccc(F)c1Cl` [Crizotinib] (1000 nM), the normalised viability is 108% in the test on CAL-51 [11]; 108% with DU-4475 [12]; 91.9% in the test with MDA-MB-453 [13]; 92.5% with HDQ-P1 [14]; 96.4% with CAL-148 [15]; 86.9% in the test with CAL-85-1 [16]. The normalised response turned out to be 83.6% in the test with CAL-51 [17]; 102% in the test on CAL-120 [18]; 131% in the test with BT-549 [19]; 103% in the test on Hs578T [20]; 98.9% with BT-474 [21]; 98.3% in the test on MDA-MB-453 [22]. In addition, in the test on HDQ-P1 [23], the normalised response worked out at 72.7%.
With `CC1(C)NC(=O)N(c2ccc([N+](=O)[O-])c(C(F)(F)F)c2)C1=O` [Nilutamide] (1000 nM), the normalised viability in the test on CAL-51 [11] came to 99.7%; in the test with DU-4475 [12], 102%; in the test with MDA-MB-453 [13], 108%; in the test with HDQ-P1 [14] it was 123%; in the test with CAL-148 [15] it was 108%; in the test on CAL-85-1 [16], 94.2%. The normalised response is 103% with CAL-51 [17]; 101% with CAL-120 [18]; 123% in the test with BT-549 [19]; 100% in the test with Hs578T [20]; 102% in the test with BT-474 [21]; 94% in the test with MDA-MB-453 [22]. In addition, the normalised response in the test with HDQ-P1 [23] amounted to 88.5%.
Consider `C[C@]12CC[C@@H]3c4ccc(O)cc4C[C@@H](CCCCCCCCC[S+]([O-])CCCC(F)(F)C(F)(F)F)[C@H]3[C@@H]1CC[C@@H]2O` (stereo not given in full) [Fulvestrant] (1000 nM), for which the normalised viability in the test on CAL-51 [11] stood at 111%; in the test on DU-4475 [12] it was 93.5%; with MDA-MB-453 [13], 84.6%; with HDQ-P1 [14], 84.3%; in the test on CAL-148 [15] it was 92.4%; in the test with CAL-85-1 [16] it was 84.9%. For the same molecule, the normalised response was found to be 117% with CAL-51 [17]; 97.9% in the test with CAL-120 [18]; 91.9% in the test on BT-549 [19]; 121% in the test with Hs578T [20]; 102% in the test on BT-474 [21]; 97.9% in the test with MDA-MB-453 [22]. Besides, the normalised response with HDQ-P1 [23] came to 111%.
